Experimental data as given in ChEMBL document CHEMBL3091316, “Antiangiogenic tocotrienol derivatives from Garcinia amplexicaulis” (J Nat Prod, 2013).
Activity calls are given as the source filed them. The calls are words filed in the database; no cut-off is given here.

Key:
HUVEC [1] = assay: Cytotoxicity against HUVEC assessed as cell viability at 25 nM to 2.5 uM after 24 to 48 hrs by MTT assay; assay type: cell-based; conditions: human, 0.025 µM
HUVEC [2] = assay: Antiadhesive activity in HUVEC assessed as decrease in cell adhesion at 25 nM to 2.5 uM after 24 hrs by crystal violet staining technique; assay type: functional, cell-based; conditions: Homo sapiens
HUVEC [3] = assay: Antimigratory activity in VEGF-induced HUVEC assessed as decrease in cell migration at 25 nM to 2.5 uM incubated for 30 mins prior to VEGF challenge measured after 24 hrs by Transwell assay; assay type: functional, cell-based; conditions: Homo sapiens
HUVEC [4] = assay: Inhibition of VEGF-induced HUVEC proliferation at 25 nM to 2.5 uM incubated for 30 mins prior to VEGF challenge measured after 24 hrs by fluorescence assay; assay type: functional, cell-based; conditions: Homo sapiens
HUVEC [5] = assay: Antiangiogenic activity in HUVEC assessed as inhibition of VEGF-induced capillary network formation at 25 nM to 2.5 uM after 24 hrs by matrigel assay; assay type: functional, cell-based; conditions: Homo sapiens
HUVEC [6] = assay: Antimigratory activity in VEGF-induced HUVEC assessed as decrease in cell migration at 2.5 uM incubated for 30 mins prior to VEGF challenge measured after 24 hrs by Transwell assay; assay type: functional, cell-based; conditions: Homo sapiens

In the case of `C/C(=C\CC/C(C)=C/CC[C@]1(C)CCc2cc(O)c(C)c(C)c2O1)CCC=C(CO)CO`, the Activity (HUVEC [1]) is reported as “Non-toxic”, the Activity (HUVEC [2]) is reported as “inactive” and the Activity (HUVEC [3]) is reported as “inactive”. For the same compound, the inhibition (HUVEC [4]) was “Active” and the Activity (HUVEC [5]) was “Active”.

For `C/C(=C\CC/C(C)=C/CC[C@]1(C)CCc2cc(O)cc(C)c2O1)CCC=C(CO)CO`, the Activity (HUVEC [6]) was “Active”, the Activity (HUVEC [1]) was “Non-toxic” and the Activity (HUVEC [2]) was “Active”. The inhibition (HUVEC [4]) was “Active” and the Activity (HUVEC [5]) was “Active”.
